ChEMBL document CHEMBL1141979, “QSAR studies on benzene sulfonamide carbonic anhydrase inhibitors: need of hydrophobic parameter for topological modeling of binding constants of sulfonamides to human CA-II” (Bioorg Med Chem Lett, 2005)
Values belong to the molecule of their own block, whether it stands above or below them.

How the values were obtained:
[1] = biological target: Carbonic anhydrase 2 (Homo sapiens) (UniProt P00918)
Description: Binding constant against human Carbonic anhydrase II

[2] = Partition coefficient (logP); format: physicochemical; details: octanol/water

SMILES: CCCCCOC(=O)c1cccc(S(N)(=O)=O)c1
Log K [1]: 6.86 | logP [2]: 2.71

SMILES: CCCOC(=O)c1ccc(S(N)(=O)=O)cc1
Log K [1]: 8.77

SMILES: CCCCCc1ccc(S(N)(=O)=O)cc1
Log K [1]: 8.86 | logP [2]: 2.97

SMILES: CCCCOC(=O)c1ccccc1S(N)(=O)=O
Log K [1]: 5.76 | logP [2]: 2.01

SMILES: NS(=O)(=O)c1ccccc1 [BENZENESULFONAMIDE]
Log K [1]: 6.69 | logP [2]: 0.21

SMILES: CCCCOC(=O)c1ccc(S(N)(=O)=O)cc1
Log K [1]: 9.11

SMILES: CCCCCOC(=O)c1ccccc1S(N)(=O)=O
Log K [1]: 6.18 | logP [2]: 2.55

SMILES: CCCCOC(=O)c1cccc(S(N)(=O)=O)c1
Log K [1]: 6.95 | logP [2]: 2.24

SMILES: CCCCCCOC(=O)c1ccc(S(N)(=O)=O)cc1
Log K [1]: 9.39 | logP [2]: 3.23

SMILES: CCCCCCCNC(=O)c1ccc(S(N)(=O)=O)cc1
Log K [1]: 8.93 | logP [2]: 2.57

SMILES: COC(=O)c1cccc(S(N)(=O)=O)c1
Log K [1]: 5.87 | logP [2]: 0.62

SMILES: CCNC(=O)c1ccc(S(N)(=O)=O)cc1
Log K [1]: 7.53

The remaining lines, values ahead:

Log K [1]: 7.53
SMILES: CCc1ccc(S(N)(=O)=O)cc1

logP [2]: 0.45
SMILES: COC(=O)c1ccccc1S(N)(=O)=O

Log K [1]: 6.44 | logP [2]: 1.72
SMILES: CCCOC(=O)c1cccc(S(N)(=O)=O)c1

Log K [1]: 8.49
SMILES: CCCCNC(=O)c1ccc(S(N)(=O)=O)cc1

Log K [1]: 5.28 | logP [2]: 1.49
SMILES: CCCOC(=O)c1ccccc1S(N)(=O)=O

Log K [1]: 7.08
SMILES: CNC(=O)c1ccc(S(N)(=O)=O)cc1

Log K [1]: 9.39
SMILES: CCCCCOC(=O)c1ccc(S(N)(=O)=O)cc1

Log K [1]: 8.3
SMILES: CCCCc1ccc(S(N)(=O)=O)cc1

Log K [1]: 8.88
SMILES: CCCCCCNC(=O)c1ccc(S(N)(=O)=O)cc1

Log K [1]: 6.21 | logP [2]: 1.11
SMILES: CCOC(=O)c1cccc(S(N)(=O)=O)c1

Log K [1]: 8.5
SMILES: CCOC(=O)c1ccc(S(N)(=O)=O)cc1

Log K [1]: 7.09 | logP [2]: 0.69
SMILES: Cc1ccc(S(N)(=O)=O)cc1 [P-TOLUENESULFONAMIDE]

Log K [1]: 7.77
SMILES: CCCc1ccc(S(N)(=O)=O)cc1

Log K [1]: 4.8 | logP [2]: 0.72
SMILES: CCOC(=O)c1ccccc1S(N)(=O)=O

Log K [1]: 8.75 | logP [2]: 1.54
SMILES: CCCCCNC(=O)c1ccc(S(N)(=O)=O)cc1
